Experimental findings from EP0672658B1, “Antithrombotic agents” (priority 1994, dated 1995) are described below.

Broadly, the bioavailability is dose-corrected exposure relative to a reference, in per cent. The low end stands for little systemic uptake, the high end for much systemic uptake.

Each structure is given as a SMILES string. Structures can show the parent of a compound that is named as a salt.

Chain of t-PA (P00750 36-562): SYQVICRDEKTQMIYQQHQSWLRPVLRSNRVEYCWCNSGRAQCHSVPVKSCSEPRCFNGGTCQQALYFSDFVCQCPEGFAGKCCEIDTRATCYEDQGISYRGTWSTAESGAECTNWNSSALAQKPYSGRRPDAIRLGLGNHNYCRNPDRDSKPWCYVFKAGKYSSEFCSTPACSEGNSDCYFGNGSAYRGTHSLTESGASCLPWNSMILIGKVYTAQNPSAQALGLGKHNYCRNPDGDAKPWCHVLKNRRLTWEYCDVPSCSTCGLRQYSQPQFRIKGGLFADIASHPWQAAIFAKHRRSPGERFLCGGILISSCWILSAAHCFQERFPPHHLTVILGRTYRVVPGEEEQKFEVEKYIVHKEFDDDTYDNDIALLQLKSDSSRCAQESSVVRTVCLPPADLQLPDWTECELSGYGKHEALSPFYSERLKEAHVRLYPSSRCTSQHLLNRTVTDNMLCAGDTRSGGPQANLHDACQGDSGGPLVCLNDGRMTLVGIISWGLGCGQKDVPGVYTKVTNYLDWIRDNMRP

The subject of one data set is human or animal plasma. Briefly: Anticoagulation determination in plasma: thrombin time (TT). It counts as biochemical. To be noted: concentration doubling thrombin time. In short, it runs like this: (§1)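 Compounds spiked over a concentration range into citrated human, dog or rat plasma. PT used Thromboplastin-C; APTT used Actin reagent 120 s then 0.02 M CaCl2; TT used bovine thrombin 10 NIH units/mL. Concentration doubling clotting time estimated by linear extrapolation.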
For the compound `CCS(=O)(=O)N[C@H](Cc1ccccc1)C(=O)N1CCC[C@H]1C(=O)NCCCCNC(=N)N` [Example 1, EtS02-D-Phe-Pro-Agm·HCl], the “Human Plasma Anticoagulation 2x Clotting time (ng/mL) TT” value was found to be 250 ng/mL.
Still for that read-out and setting: then `N=C(N)N1CCC(CNC(=O)[C@@H]2CCCN2C(=O)[C@@H](CC2CCCCC2)NCC(=O)O)CC1` [Example 56, HO2CCH2-D-Cha-Pro-4-NHCH2-1-amidinopiperidine·HCl], with 5 ng/mL.
The same measure, in the same setting: as for `N=C(N)c1ccc(CNC(=O)[C@@H]2CCCN2C(=O)[C@@H]2NCC[C@@H]3CCCC[C@@H]32)cc1` [Example 18, 1-Piq-Pro-p-NHCH2C6H4C(NH)NH2·2HCl], the figure is 7 ng/mL; as for `CCS(=O)(=O)N[C@H](Cc1ccccc1)C(=O)N1CCC[C@H]1C(=O)NCc1cccc(NC(=N)N)c1` [Example 36, EtSO2-D-Phe-Pro-m-NHCH2C6H4NHC(NH)NH2·HCl], 7,700 ng/mL.

In the next data set the target is factor Xa (Homo sapiens, UniProt P00742). Briefly: biochemical. The following applies: read-out: Kass Xa (converted). The method, boiled down: (§2)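 Bovine trypsin and human factor Xa amidase activity measured chromogenically, following the human thrombin procedure. Substrates: N-Benzoyl-Ile-Glu-Gly-Arg-p-nitroanilide for factor Xa and N-Benzoyl-Phe-Val-Arg-p-nitroanilide for trypsin. Used for selectivity profiling.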
Chain of factor Xa (P00742 235-488 limits assumed): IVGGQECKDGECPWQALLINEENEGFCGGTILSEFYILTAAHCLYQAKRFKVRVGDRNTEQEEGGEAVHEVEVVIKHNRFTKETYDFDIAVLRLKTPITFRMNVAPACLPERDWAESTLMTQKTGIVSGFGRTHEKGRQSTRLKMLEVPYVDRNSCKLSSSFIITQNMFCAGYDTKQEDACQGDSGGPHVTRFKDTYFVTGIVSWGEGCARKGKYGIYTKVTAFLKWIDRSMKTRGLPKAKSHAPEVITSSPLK
Chain of factor Xa (P00742 41-179 partner limits assumed): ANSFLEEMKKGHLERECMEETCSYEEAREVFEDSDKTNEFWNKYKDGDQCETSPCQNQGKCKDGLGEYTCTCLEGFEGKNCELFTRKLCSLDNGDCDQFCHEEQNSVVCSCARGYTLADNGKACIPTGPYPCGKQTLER
On to `CCS(=O)(=O)N[C@H](Cc1ccccc1)C(=O)N1CCC[C@H]1C(=O)NCCCCNC(=N)N` [Example 1, EtS02-D-Phe-Pro-Agm·HCl], for which the Kd is 588 µM.
The same measure, in the same setting: then `N=C(N)N1CCC(CNC(=O)[C@@H]2CCCN2C(=O)[C@@H](CC2CCCCC2)NCC(=O)O)CC1` [Example 56, HO2CCH2-D-Cha-Pro-4-NHCH2-1-amidinopiperidine·HCl], with 5 µM; and `N=C(N)c1ccc(CNC(=O)[C@@H]2CCCN2C(=O)[C@@H]2NCC[C@@H]3CCCC[C@@H]32)cc1` [Example 18, 1-Piq-Pro-p-NHCH2C6H4C(NH)NH2·2HCl], with 4.76 µM.
The same measure, in the same setting: then `CCS(=O)(=O)N[C@H](Cc1ccccc1)C(=O)N1CCC[C@H]1C(=O)NCc1cccc(NC(=N)N)c1` [Example 36, EtSO2-D-Phe-Pro-m-NHCH2C6H4NHC(NH)NH2·HCl], with over 1000 µM.

Another data set has as its target t-PA (Homo sapiens, UniProt P00750). Description: biochemical. The following applies: read-out: Kass t-PA (converted). The method, boiled down:
(§3)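 Amidase activity of human plasmin and t-PA (nt-PA single-chain; mt-PA6) was measured by a chromogenic method adapted from a thrombin assay. Substrates were H-D-Val-Leu-Lys-p-nitroanilide for plasmin and H-D-Ile-Pro-Arg-p-nitroanilide for t-PA.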
Take `CCS(=O)(=O)N[C@H](Cc1ccccc1)C(=O)N1CCC[C@H]1C(=O)NCCCCNC(=N)N` [Example 1, EtS02-D-Phe-Pro-Agm·HCl]: the Kd was 12.2 µM.
In the case of `N=C(N)N1CCC(CNC(=O)[C@@H]2CCCN2C(=O)[C@@H](CC2CCCCC2)NCC(=O)O)CC1` [Example 56, HO2CCH2-D-Cha-Pro-4-NHCH2-1-amidinopiperidine·HCl], the Kd is over 1000 µM.
Same read-out and setting: then `N=C(N)c1ccc(CNC(=O)[C@@H]2CCCN2C(=O)[C@@H]2NCC[C@@H]3CCCC[C@@H]32)cc1` [Example 18, 1-Piq-Pro-p-NHCH2C6H4C(NH)NH2·2HCl], with 106 µM; and `CCS(=O)(=O)N[C@H](Cc1ccccc1)C(=O)N1CCC[C@H]1C(=O)NCc1cccc(NC(=N)N)c1` [Example 36, EtSO2-D-Phe-Pro-m-NHCH2C6H4NHC(NH)NH2·HCl], with over 1000 µM.

Another data set deals with T1, Plasmin (Homo sapiens, UniProt P00747).
T1 construct: Human plasmin is purchased; purchased Boehringer Mannheim, Indianapolis, Indiana
T1 sequence (P00747 581-810 limits assumed): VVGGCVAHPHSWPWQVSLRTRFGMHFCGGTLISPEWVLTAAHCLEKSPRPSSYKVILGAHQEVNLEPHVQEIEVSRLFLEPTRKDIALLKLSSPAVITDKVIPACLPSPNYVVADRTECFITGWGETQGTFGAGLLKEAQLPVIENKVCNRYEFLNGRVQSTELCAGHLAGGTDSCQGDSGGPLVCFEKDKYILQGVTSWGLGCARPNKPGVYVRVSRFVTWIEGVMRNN
T1 sequence (P00747 97-580 partner limits assumed): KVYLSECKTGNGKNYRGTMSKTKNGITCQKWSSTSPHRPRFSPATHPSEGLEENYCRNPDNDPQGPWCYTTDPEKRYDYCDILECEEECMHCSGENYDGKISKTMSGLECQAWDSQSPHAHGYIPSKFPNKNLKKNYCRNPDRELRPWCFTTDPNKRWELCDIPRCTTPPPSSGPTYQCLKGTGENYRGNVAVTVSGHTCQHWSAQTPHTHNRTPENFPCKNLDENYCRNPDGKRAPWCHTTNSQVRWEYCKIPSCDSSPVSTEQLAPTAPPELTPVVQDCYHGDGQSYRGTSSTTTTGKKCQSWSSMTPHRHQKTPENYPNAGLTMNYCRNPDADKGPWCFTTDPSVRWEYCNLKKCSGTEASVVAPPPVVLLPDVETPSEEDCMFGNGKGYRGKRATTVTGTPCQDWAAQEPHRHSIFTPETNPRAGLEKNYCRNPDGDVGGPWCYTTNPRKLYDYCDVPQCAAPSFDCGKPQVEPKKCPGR
Description: biochemical. To be noted: read-out: Kass Plasmin (converted). The method, boiled down:
as §3
Consider `CCS(=O)(=O)N[C@H](Cc1ccccc1)C(=O)N1CCC[C@H]1C(=O)NCCCCNC(=N)N` [Example 1, EtS02-D-Phe-Pro-Agm·HCl], for which the Kd is 100 µM.
Still for that read-out and setting: as for `N=C(N)N1CCC(CNC(=O)[C@@H]2CCCN2C(=O)[C@@H](CC2CCCCC2)NCC(=O)O)CC1` [Example 56, HO2CCH2-D-Cha-Pro-4-NHCH2-1-amidinopiperidine·HCl], the figure is 100 µM; as for `N=C(N)c1ccc(CNC(=O)[C@@H]2CCCN2C(=O)[C@@H]2NCC[C@@H]3CCCC[C@@H]32)cc1` [Example 18, 1-Piq-Pro-p-NHCH2C6H4C(NH)NH2·2HCl], 11.8 µM.
Same read-out and setting: as for `CCS(=O)(=O)N[C@H](Cc1ccccc1)C(=O)N1CCC[C@H]1C(=O)NCc1cccc(NC(=N)N)c1` [Example 36, EtSO2-D-Phe-Pro-m-NHCH2C6H4NHC(NH)NH2·HCl], the figure is over 1000 µM.

For another data set, the target named is Human Thrombin (Homo sapiens, UniProt P00734). Description: biochemical. To be noted: read-out: Kass Human Thrombin (converted).
With `CCS(=O)(=O)N[C@H](Cc1ccccc1)C(=O)N1CCC[C@H]1C(=O)NCCCCNC(=N)N` [Example 1, EtS02-D-Phe-Pro-Agm·HCl], the Kd is 303 nM.
For the compound `N=C(N)N1CCC(CNC(=O)[C@@H]2CCCN2C(=O)[C@@H](CC2CCCCC2)NCC(=O)O)CC1` [Example 56, HO2CCH2-D-Cha-Pro-4-NHCH2-1-amidinopiperidine·HCl], the Kd was 2.04 nM.
Still for that read-out and setting: as for `N=C(N)c1ccc(CNC(=O)[C@@H]2CCCN2C(=O)[C@@H]2NCC[C@@H]3CCCC[C@@H]32)cc1` [Example 18, 1-Piq-Pro-p-NHCH2C6H4C(NH)NH2·2HCl], the figure is 5.56 nM; as for `CCS(=O)(=O)N[C@H](Cc1ccccc1)C(=O)N1CCC[C@H]1C(=O)NCc1cccc(NC(=N)N)c1` [Example 36, EtSO2-D-Phe-Pro-m-NHCH2C6H4NHC(NH)NH2·HCl], 16700 nM.

Test system in the next data set: not listed separately
Briefly: in vivo. Also on record: species or system rats. To be noted: plasma; rat; oral vs i.v. An excerpt:
Each sample population represented alternating sequential time points.
Compound `CCS(=O)(=O)N[C@H](Cc1ccccc1)C(=O)N1CCC[C@H]1C(=O)NCCCCNC(=N)N` [Example 1, EtS02-D-Phe-Pro-Agm·HCl] registered a bioavailability of 8%.

The test system of the next data set is human or animal plasma. Briefly: Anticoagulation determination in plasma: activated partial thromboplastin time (APTT). It counts as biochemical. The following applies: concentration doubling activated partial thromboplastin time. In short, it runs like this: as §1
On to `N=C(N)N1CCC(CNC(=O)[C@@H]2CCCN2C(=O)[C@@H](CC2CCCCC2)NCC(=O)O)CC1` [Example 56, HO2CCH2-D-Cha-Pro-4-NHCH2-1-amidinopiperidine·HCl], for which the “Human Plasma Anticoagulation 2x Clotting time (ng/mL) APTT” value is on record as 160 ng/mL.
Same read-out and setting: then `N=C(N)c1ccc(CNC(=O)[C@@H]2CCCN2C(=O)[C@@H]2NCC[C@@H]3CCCC[C@@H]32)cc1` [Example 18, 1-Piq-Pro-p-NHCH2C6H4C(NH)NH2·2HCl], with 79 ng/mL; and `CCS(=O)(=O)N[C@H](Cc1ccccc1)C(=O)N1CCC[C@H]1C(=O)NCc1cccc(NC(=N)N)c1` [Example 36, EtSO2-D-Phe-Pro-m-NHCH2C6H4NHC(NH)NH2·HCl], with >91,000 ng/mL.

For a further data set, the system named is human or animal plasma. Briefly: Anticoagulation determination in plasma: prothrombin time (PT). The following applies: concentration doubling prothrombin time. Type of data set: biochemical. The method, boiled down:
as §1
In the case of `N=C(N)N1CCC(CNC(=O)[C@@H]2CCCN2C(=O)[C@@H](CC2CCCCC2)NCC(=O)O)CC1` [Example 56, HO2CCH2-D-Cha-Pro-4-NHCH2-1-amidinopiperidine·HCl], the “Human Plasma Anticoagulation 2x Clotting time (ng/mL) PT” value amounted to 200 ng/mL.
On to `N=C(N)c1ccc(CNC(=O)[C@@H]2CCCN2C(=O)[C@@H]2NCC[C@@H]3CCCC[C@@H]32)cc1` [Example 18, 1-Piq-Pro-p-NHCH2C6H4C(NH)NH2·2HCl], for which the “Human Plasma Anticoagulation 2x Clotting time (ng/mL) PT” value was determined as 170 ng/mL.
Take `CCS(=O)(=O)N[C@H](Cc1ccccc1)C(=O)N1CCC[C@H]1C(=O)NCc1cccc(NC(=N)N)c1` [Example 36, EtSO2-D-Phe-Pro-m-NHCH2C6H4NHC(NH)NH2·HCl]: the “Human Plasma Anticoagulation 2x Clotting time (ng/mL) PT” value is listed as >91,000 ng/mL.

A further data set addresses T2, Trypsin (Bos taurus, UniProt P00760).
T2 sequence (P00760 24-246): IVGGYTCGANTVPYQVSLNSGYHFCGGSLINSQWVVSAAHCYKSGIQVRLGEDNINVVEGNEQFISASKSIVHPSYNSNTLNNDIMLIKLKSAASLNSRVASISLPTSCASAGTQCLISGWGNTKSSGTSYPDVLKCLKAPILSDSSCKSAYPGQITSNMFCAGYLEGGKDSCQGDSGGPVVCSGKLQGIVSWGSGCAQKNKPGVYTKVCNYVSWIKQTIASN
Description: biochemical. The following applies: read-out: Kass Trypsin (converted). Also on record: species or system Bovine. The method, boiled down: as §2
In the case of `CCS(=O)(=O)N[C@H](Cc1ccccc1)C(=O)N1CCC[C@H]1C(=O)NCCCCNC(=N)N` [Example 1, EtS02-D-Phe-Pro-Agm·HCl], the Kd was 2630 nM.
The same measure, in the same setting: as for `N=C(N)N1CCC(CNC(=O)[C@@H]2CCCN2C(=O)[C@@H](CC2CCCCC2)NCC(=O)O)CC1` [Example 56, HO2CCH2-D-Cha-Pro-4-NHCH2-1-amidinopiperidine·HCl], the figure is 278 nM; as for `N=C(N)c1ccc(CNC(=O)[C@@H]2CCCN2C(=O)[C@@H]2NCC[C@@H]3CCCC[C@@H]32)cc1` [Example 18, 1-Piq-Pro-p-NHCH2C6H4C(NH)NH2·2HCl], 71.4 nM; as for `CCS(=O)(=O)N[C@H](Cc1ccccc1)C(=O)N1CCC[C@H]1C(=O)NCc1cccc(NC(=N)N)c1` [Example 36, EtSO2-D-Phe-Pro-m-NHCH2C6H4NHC(NH)NH2·HCl], 100000 nM.
